{"source": "patent US8586707B2", "about": "“Stapled peptides and method of synthesis” (The Research Foundation of State University of New York, priority 2008, dated 2013)", "key": {"[1]": {"experiment": "Far-UV circular dichroism, percent helicity", "format": "physicochemical", "details": "CD in trifluoroethanol at 25 °C, from mean residue ellipticity at 208 nm", "method": "(§1) To examine the stapling effect on peptide secondary structure, we measured the far-UV circular dichroism (CD) spectra of the stapled peptides in trifluoroethanol (TFE) at 25° C. Because the tetrazoles in the linear peptides are labile to the CD scanning light (short wavelength UV light), we prepared a photo stable control peptide, Ac-Val-Lys(Ac)-Leu-Aib-Val-Lys(Ac)-Leu-NH2 (SEQ ID NO:1) (17; Ac=acetyl; Aib=amino isobutyric acid) as a linear surrogate. […] The percent helicity of 17 was determined to be 53% on the basis of mean residue ellipticity (MRE) at 208 nm. […] To further characterize the stability derived from the stapling, we measured thermal melting point (Tm) of the most helical peptide 16 by following its ellipticity over a wide temperature range (20-85° C.), and compared it to that of the linear photo stable peptide 17 (FIG. 5 (b)).\nCircular Dichroism: CD spectra were obtained using 1-mm pathlength cuvettes on a JASCO J-715 instrument at 25° C. The instrument scan range was set at 190 to 250 nm. The scan rate was set at 50 nm/min, the response time was set at 2 sec, and the bandwidth was set at 1 nm. The spectra were the averages of two scans. For the measurement of percent helicity, peptides were dissolved in 100% trifluoroethanol (TFE); for the Tm determination, 20% TFE/H2O were used as the solvent. The percent helicity was calculated by using the following equation: […]"}, "HeLa cells": {"test_system": "HeLa cells", "experiment": "Cellular uptake study by fluorescent microscopy", "format": "cell-based", "details": "100 μM peptide, 4 hours, 37 °C, DAPI filter", "method": "To assess whether the stapled peptides are capable of penetrating cell membrane, we took advantage of the intrinsic fluorescence of the pyrazoline cross-linkers and monitored the stapled peptide cellular uptake by fluorescent microscopy. […] After incubating HeLa cells with 100 μM of peptide 13 for 4 hours in a 37° C. CO2 incubator, the cells were washed twice with PBS before fixing with 4% paraformaldehyde and the subcellular distribution of peptide 13 was examined by fluorescent microscopy.\nCellular Uptake Study: HeLa cells cultured on cover slips were treated with 100 μM of peptide 13 or control peptide 18 in 2% DMSO serum-free DMEM medium for 4 hr in a 37° C., 5% CO2 incubator. In preparation for fixation, medium was aspirated and the cells were washed twice with PBS. The cover slips were treated to a freshly prepared 4% paraformaldehyde/PBS solution for 10˜15 min, washed twice with PBS, and quenched with 50 mM NH4Cl for 10 minutes. After washing with PBS twice, the cover-slip was flipped and placed on top of microscopy glass containing in situ-frame and PBS buffer to make a sealed sample chamber. The images were acquired on a Zeiss Axioimager motorized fluorescence microscope. DAPI filter (ex 365 nm, em 445±25 nm) was used in acquiring fluorescence images. All image acquisitions and processing were performed under identical conditions."}, "[2]": {"experiment": "Thermal melting point by CD ellipticity over 20-85 °C", "format": "physicochemical", "details": "for melting temperature (Tm): 100 μM peptide in 20% TFE/H2O, 20-85 °C", "method": "as §1\nCircular Dichroism: CD spectra were obtained using 1-mm pathlength cuvettes on a JASCO J-715 instrument at 25° C. The instrument scan range was set at 190 to 250 nm. The scan rate was set at 50 nm/min, the response time was set at 2 sec, and the bandwidth was set at 1 nm. The spectra were the averages of two scans. For the measurement of percent helicity, peptides were dissolved in 100% trifluoroethanol (TFE); for the Tm determination, 20% TFE/H2O were used as the solvent. The percent helicity was calculated by using the following equation:\n[formula] The melting temperature (Tm) was determined by following a reported procedure. Briefly, a sample of 100 μM peptide in 20% TFE/H2O in an 1-mm pathlength cuvette was scanned at various temperatures from 20° C. to 85° C. (5-degree intervals) with an equilibration time of 3 min and a heating rate of 60° C./hr. The θ222 MRE data was normalized by setting the maximum θ222 MRE to 100% and the minimum θ222 MRE to 0."}, "[3]": {"details": "the molecule shown is the open-chain precursor, other bond, hv 302 nm (tetrazole-alkene photocycloaddition)"}, "[4]": {"details": "the molecule shown is the open-chain precursor, other bond, 28-membered ring, hv 302 nm, 10 min, 0.15 mM"}, "[5]": {"details": "28-membered ring, MeCN, 0.15 mM"}}, "note": "Like-named read-outs stand apart in the source and are kept apart here. *1 amine or outer side, *2 acyl side, *3 side chain or, on linkers, in order; H or OH if unused. Where a SMILES comes first, the peptide text is derived from it. Bridges are numbered along the chain shown (N, C = ends). [ ]: non-standard residue; d: D form. The star is where a group is joined. X1 = CN(C)c1ccc(N2N=C(C(=O)[*:2])CC2(C)C(=O)[*:1])cc1; X5 = COc1ccc(N2N=C(C(=O)[*:2])CC2(C)C(=O)[*:1])cc1; X3 = COc1ccc(N2N=C(C(=O)[*:2])CC2C(=O)[*:1])cc1; X4 = CC1(C(=O)[*:1])CC(C(=O)[*:2])=NN1c1ccccc1; X2 = COc1ccc(N2N=C(C(=O)*)CC2C(N)=O)cc1; Aib = CC(C)(N)C(=O)O"}
{"compound": "CC(=O)N[C@H](C(=O)N[C@H]1CCCCNC(=O)C2(C)CC(=NN2c2ccccc2)C(=O)NCCCC[C@@H](C(=O)N[C@@H](CC(C)C)C(N)=O)NC(=O)[C@H](C(C)C)NC(=O)C(C)(C)NC(=O)[C@H](CC(C)C)NC1=O)C(C)C", "note": "(some centres unmarked) [Peptide 11] (Ac-VKL[Aib]VKL-NH2; linker 2-6 via X4)", "values": [{"measurement": "percent helicity", "setting": "[1]", "result": 51, "unit": "%"}]}
{"compound": "COc1ccc(N2N=C3CC2C(=O)NCCCC[C@H](NC(=O)[C@@H](NC(C)=O)C(C)C)C(=O)N[C@@H](CC(C)C)C(=O)NC(C)(C)C(=O)N[C@@H](C(C)C)C(=O)N[C@H](C(=O)N[C@@H](CC(C)C)C(N)=O)CCCCNC3=O)cc1", "note": "(some centres unmarked) [Peptide 13] (Ac-VKL[Aib]VKL-NH2; linker 2-6 via X3)", "values": [{"measurement": "cellular uptake (intracellular fluorescence)", "setting": "HeLa cells", "result": "punctuated fluorescence was observed in discrete cytoplasmic regions within HeLa cells"}]}
{"compound": "COc1ccc(N2N=C3CC2(C)C(=O)NCCCC[C@H](NC(=O)[C@@H](NC(C)=O)C(C)C)C(=O)N[C@@H](CC(C)C)C(=O)NC(C)(C)C(=O)N[C@@H](C(C)C)C(=O)N[C@H](C(=O)N[C@@H](CC(C)C)C(N)=O)CCCCNC3=O)cc1", "note": "(some centres unmarked) [Peptide 14] (Ac-VKL[Aib]VKL-NH2; linker 2-6 via X5)", "values": [{"measurement": "percent helicity", "setting": "[1]", "result": 51, "unit": "%"}]}
{"compound": "CC(=O)N[C@H](C(=O)N[C@H]1CCCCNC(=O)C2(C)CC(=NN2c2ccc(N(C)C)cc2)C(=O)NCCCC[C@@H](C(=O)N[C@@H](CC(C)C)C(N)=O)NC(=O)[C@H](C(C)C)NC(=O)C(C)(C)NC(=O)[C@H](CC(C)C)NC1=O)C(C)C", "note": "(some centres unmarked) [Peptide 16] (Ac-VKL[Aib]VKL-NH2; linker 2-6 via X1)", "values": [{"measurement": "percent helicity", "setting": "[1]", "result": 64, "unit": "%"}, {"measurement": "melting temperature (Tm)", "setting": "[2]", "result": 63, "unit": "°C"}, {"measurement": "increase in Tm versus linear peptide 17", "setting": "[2]; stapled 16 vs linear 17", "result": 15, "unit": "°C"}]}
{"compound": "CC(=O)NCCCC[C@H](NC(=O)[C@@H](NC(C)=O)C(C)C)C(=O)N[C@@H](CC(C)C)C(=O)NC(C)(C)C(=O)N[C@H](C(=O)N[C@@H](CCCCNC(C)=O)C(=O)N[C@@H](CC(C)C)C(N)=O)C(C)C", "note": "[Peptide 17, Ac-Val-Lys(Ac)-Leu-Aib-Val-Lys(Ac)-Leu-NH2, reference compound] (Ac-VK(Ac)L[Aib]VK(Ac)L-NH2)", "values": [{"measurement": "percent helicity", "setting": "[1]", "result": 53, "unit": "%"}, {"measurement": "melting temperature (Tm)", "setting": "[2]", "result": 48, "unit": "°C"}]}
{"compound": "COc1ccc(N2N=C(C(=O)NCCCC[C@H](NC(=O)[C@@H](NC(=O)C(C)(C)NC(=O)[C@H](CC(C)C)NC(=O)[C@H](CCCCNC(C)=O)NC(=O)[C@@H](NC(C)=O)C(C)C)C(C)C)C(=O)N[C@@H](CC(C)C)C(N)=O)CC2C(N)=O)cc1", "note": "(stereo partly drawn) [Peptide 18, Ac-Val-Lys(Pyr)-Leu-Aib-Val-Lys(Ac)-Leu-NH2, reference compound] (Ac-VK(Ac)L[Aib]VK(X2)L-NH2)", "values": [{"measurement": "cellular uptake (intracellular fluorescence)", "setting": "HeLa cells", "result": "did not yield cellular fluorescent pattern"}]}
{"compound": "Ac-Leu-Thr-Phe-Lys(methacryloyl)-His-Tyr-Trp-Ala-Gln-Leu-Lys(N-(4-methoxy)phenyl-tetrazole)-Ser-NH2", "values": [{"measurement": "ring closure, yield after HPLC", "setting": "[3]", "result": 74, "unit": "%"}]}
{"compound": "Ac-Val-Lys(acryloyl)-Leu-Aib-Val-Lys(2-(4-dimethylaminophenyl)-2H-tetrazole-5-carbonyl)-Leu-NH2?", "values": [{"measurement": "ring closure, yield after HPLC", "setting": "[3]; [5]", "result": 64, "unit": "%"}]}
{"compound": "Ac-Val-Lys(acryloyl)-Leu-Aib-Val-Lys(2-(4-methoxyphenyl)-2H-tetrazole-5-carbonyl)-Leu-NH2?", "values": [{"measurement": "ring closure, yield after HPLC", "setting": "[3]; [5]", "result": 64, "unit": "%"}]}
{"compound": "Ac-Val-Lys(methacryloyl)-Leu-Aib-Val-Lys(2-(4-dimethylaminophenyl)-2H-tetrazole-5-carbonyl)-Leu-NH2?", "values": [{"measurement": "ring closure, conversion", "setting": "[4]; DCM", "result": 43, "unit": "%"}, {"measurement": "ring closure, conversion", "setting": "[4]; EtOAc", "result": 86, "unit": "%"}, {"measurement": "ring closure, conversion", "setting": "[4]; EtOH", "result": 92, "unit": "%"}, {"measurement": "ring closure, conversion", "setting": "[4]; MeCN", "result": 87, "unit": "%"}, {"measurement": "ring closure, conversion", "setting": "[4]; iPrOH", "result": 88, "unit": "%"}, {"measurement": "ring closure, yield after HPLC", "setting": "[3]; [5]", "result": 94, "unit": "%"}]}
{"compound": "Ac-Val-Lys(methacryloyl)-Leu-Aib-Val-Lys(2-(4-methoxyphenyl)-2H-tetrazole-5-carbonyl)-Leu-NH2?", "values": [{"measurement": "ring closure, yield after HPLC", "setting": "[3]; [5]", "result": 53, "unit": "%"}]}
{"compound": "Ac-Val-Lys(methacryloyl)-Leu-Aib-Val-Lys(2-phenyl-2H-tetrazole-5-carbonyl)-Leu-NH2?", "values": [{"measurement": "ring closure, yield after HPLC", "setting": "[3]; [5]", "result": 41, "unit": "%"}]}
{"compound": "Ac-Val-Lys(methacryloyl)-Leu-Aib-Val-Lys(4-(2-phenyl-2H-tetrazol-5-yl)benzoyl)-Leu-NH2?", "values": [{"measurement": "ring closure, yield after HPLC", "setting": "[3]; 32-membered ring, MeCN, 0.15 mM", "result": 38, "unit": "%"}]}
{"compound": "Ac-Val-Orn(methacryloyl)-Leu-Aib-Val-Orn(2-phenyl-2H-tetrazole-5-carbonyl)-Leu-NH2?", "values": [{"measurement": "ring closure, yield after HPLC", "setting": "[3]; 26-membered ring, MeCN, 0.15 mM", "result": 15, "unit": "%"}]}
{"compound": "Ac-Val-Orn(methacryloyl)-Leu-Aib-Val-Orn(4-(2-phenyl-2H-tetrazol-5-yl)benzoyl)-Leu-NH2?", "values": [{"measurement": "ring closure, yield after HPLC", "setting": "[3]; 30-membered ring, MeCN, 0.15 mM", "result": 15, "unit": "%"}]}
